Assay results from US7429564B2, “Oral insulin therapy” (Emisphere Technologies, Inc., priority 2002, dated 2008).
Where two headings read alike, the source gives them in different places. Marks after values point to notes of the source that are not given here.

What was measured:
[1] = system: primary molecular targets; experiment: Receptor binding screening assays
Protocol: The present invention comprising compositions of insulin and the delivery agent 4-CNAB was evaluated for safety and toxicity in a nonclinical program that included pharmacological screening, pharmacokinetic profiling, and toxicity assessments in rats and monkeys.

[2] = Example 5: 4-CNAB plasma pharmacokinetics, single oral doses, healthy male volunteers; format: in vivo, human; conditions: for MRT inf: read-out: 4-CNAB MRT(0-inf); for Vd/F: read-out: 4-CNAB Vd/F
Protocol: A single center, double-blind, randomized placebo-controlled study undertaken in healthy human subjects in order to assess the safety and tolerability of escalating single oral doses of 4-CNAB capsules and insulin/4-CNAB capsules.
Within each treatment period in each group, eight subjects were planned to receive active treatment and two subjects to receive placebo. In Group 1, there were four escalating single doses of 4-CNAB (400, 800, 1400 and 2000 mg) and each subject received either all four of these escalating doses or three escalating single doses and one dose of placebo. […] In Group 3 there were three escalating oral doses of Insulin/4-CNAB (100 Units/300 mg, 100 Units/450 mg and 150 Units/100 mg) and one SC dose of 150 Units of insulin. Each subject received either all four of these treatments or three of these treatments and one placebo treatment. For all groups, there was a washout period of at least 72 hours between treatment periods.
The concentration of 4-CNAB in plasma was determined using a combination of liquid chromatography and Mass spectrometry assay known as LC-MS/MS. The method involves protein precipitation followed by separation on liquid chromatography using a Hypersil BDS column and a mobile phase consisting of methanol and acetate buffer. The eluting peaks were quantified by MS/MS. The equipment used for the determination of 4-CNAB in plasma comprises of an Agilent 1100 modular HPLC system with a Micromass Quattro Micro MS/MS detector. HPLC and AR grade chemicals and reagents were used throughout the study.
On the basis of plasma concentrations of 4-CNAB and insulin, PK analysis was performed using non-compartmental PK methods as implemented in WinNonlin™ Professional version 3.2. The profiles for insulin and C-peptide corrected insulin were evaluated up to 6 hours as food was given 6 hours following insulin treatment. The following parameters were derived for 4-CNAB: Cmax, tmax, AUC(0-t), AUC(0-inf), AUC% Extrap, Kel, t1/2, CL/F, Vd/F, MRT(0-t), MRT(0-inf) and Frel. The following parameters were derived for insulin and C-peptide corrected insulin: Cmax, tmax, AUC(0-2), AUC(0-6), AUC(0-t) and concentrations (C^b) and corresponding time (t^b) immediately prior to intervention for hypoglycemia.

[3] = male, human, plasma, oral, 400 mg, Group/Treatment 1/1, 4-CNAB dose 400, alone, unaudited data
[4] = male, human, plasma, oral, 800 mg, Group/Treatment 1/2, 4-CNAB dose 800, alone, unaudited data
[5] = male, human, plasma, oral, 1400 mg, Group/Treatment 1/3, 4-CNAB dose 1400, alone, unaudited data
[6] = male, human, plasma, oral, 2000 mg, Group/Treatment 1/4, 4-CNAB dose 2000, alone, unaudited data
[7] = male, human, plasma, oral, Group/Treatment 2/2, 4-CNAB dose 200, with insulin, unaudited data
[8] = male, human, plasma, oral, Group/Treatment 2/3, 4-CNAB dose 600, with insulin, unaudited data
[9] = male, human, plasma, oral, Group/Treatment 3/1, 4-CNAB dose 300, with insulin, unaudited data
[10] = male, human, plasma, oral, Group/Treatment 3/2, 4-CNAB dose 450, with insulin, unaudited data
[11] = male, human, plasma, oral, Group/Treatment 3/3, 4-CNAB dose 100, with insulin, unaudited data
[12] = male, human, plasma, po, 400 mg, 4-CNAB alone 400 mg oral
[13] = male, human, plasma, po, 800 mg, 4-CNAB alone 800 mg oral
[14] = male, human, plasma, po, 1400 mg, 4-CNAB alone 1400 mg oral

**Q.** With `O=C(O)CCCNC(=O)c1ccc(Cl)cc1O` [4-CNAB, 4-[(4-chloro, 2-hydroxybenzoyl)amino]butanoic acid] as the compound, how does the “Activity in receptor binding screening” value [1] read?
**A.** did not demonstrate potential activity in any of the primary molecular targets

**Q.** And the “4-CNAB Cl/F” value ([2]; 4-CNAB alone 400 mg oral)?
**A.** 294 ± 122 mL/min

**Q.** What about the 4-CNAB Kel ([2]; 4-CNAB alone 400 mg oral) of the same compound?
**A.** 0.11 ± 0.78 h⁻¹

**Q.** And the “4-CNAB Cl/F” value ([2]; 4-CNAB alone 800 mg oral)?
**A.** 290 ± 88^b mL/min

**Q.** What about the 4-CNAB Kel ([2]; 4-CNAB alone 800 mg oral) of the same compound?
**A.** 0.12 ± 0.04 h⁻¹

**Q.** What about the “4-CNAB Cl/F” value ([2]; 4-CNAB alone 1400 mg oral) of the same compound?
**A.** 160 ± 38 mL/min

**Q.** And the 4-CNAB Kel ([2]; 4-CNAB alone 1400 mg oral)?
**A.** 0.18 ± 0.14 h⁻¹

**Q.** And the “4-CNAB Cl/F” value ([2]; 4-CNAB alone 2000 mg oral)?
**A.** 178 ± 32^a mL/min

**Q.** And the 4-CNAB Kel ([2]; 4-CNAB alone 2000 mg oral)?
**A.** 0.06 ± 0.03 h⁻¹

**Q.** And the “4-CNAB median time of maximum concentration” value ([2]; 4-CNAB alone and combined Insulin/4-CNAB treatment)?
**A.** around 0.6 hours

**Q.** And the AUC [2, 3]?
**A.** 22400 ng·h/mL

**Q.** And the Cmax [2, 3]?
**A.** 22300 ng/mL

**Q.** And the Tmax ([2]; male, human, plasma, oral, 400 mg, Group/Treatment 1/1, 4-CNAB dose 400, alone, unaudited data, read-out: 4-CNAB tmax (range))?
**A.** 30 min

**Q.** What about the AUC [2, 4] of the same compound?
**A.** 42700 ng·h/mL

**Q.** What about the Cmax [2, 4] of the same compound?
**A.** 32700 ng/mL

**Q.** What about the Tmax ([2]; male, human, plasma, oral, 800 mg, Group/Treatment 1/2, 4-CNAB dose 800, alone, unaudited data, read-out: 4-CNAB tmax (range)) of the same compound?
**A.** 30 min

**Q.** And the AUC [2, 5]?
**A.** 144000 ng·h/mL

**Q.** What about the Cmax [2, 5] of the same compound?
**A.** 97500 ng/mL

**Q.** And the Tmax ([2]; male, human, plasma, oral, 1400 mg, Group/Treatment 1/3, 4-CNAB dose 1400, alone, unaudited data, read-out: 4-CNAB tmax (range))?
**A.** 30 min

**Q.** What about the AUC [2, 6] of the same compound?
**A.** 213000 ng·h/mL

**Q.** What about the Cmax [2, 6] of the same compound?
**A.** 122000 ng/mL

**Q.** What about the Tmax ([2]; male, human, plasma, oral, 2000 mg, Group/Treatment 1/4, 4-CNAB dose 2000, alone, unaudited data, read-out: 4-CNAB tmax (range)) of the same compound?
**A.** 45 min

**Q.** What about the half-life ([2]; male, human, plasma, oral, 4-CNAB alone, read-out: 4-CNAB mean elimination half-life, range across doses) of the same compound?
**A.** 354 to 918 min

**Q.** And the AUC [2, 7]?
**A.** 10000 ng·h/mL

**Q.** And the Cmax [2, 7]?
**A.** 9160 ng/mL

**Q.** And the Tmax ([2]; male, human, plasma, oral, Group/Treatment 2/2, 4-CNAB dose 200, with insulin, unaudited data, read-out: 4-CNAB tmax (range))?
**A.** 30 min

**Q.** And the AUC [2, 8]?
**A.** 36700 ng·h/mL

**Q.** And the Cmax [2, 8]?
**A.** 33200 ng/mL

**Q.** What about the Tmax ([2]; male, human, plasma, oral, Group/Treatment 2/3, 4-CNAB dose 600, with insulin, unaudited data, read-out: 4-CNAB tmax (range)) of the same compound?
**A.** 30 min

**Q.** And the AUC [2, 9]?
**A.** 8740 ng·h/mL

**Q.** What about the Cmax [2, 9] of the same compound?
**A.** 8660 ng/mL

**Q.** And the Tmax ([2]; male, human, plasma, oral, Group/Treatment 3/1, 4-CNAB dose 300, with insulin, unaudited data, read-out: 4-CNAB tmax (range))?
**A.** 30 min

**Q.** And the AUC [2, 10]?
**A.** 25900 ng·h/mL

**Q.** What about the Cmax [2, 10] of the same compound?
**A.** 20100 ng/mL

**Q.** What about the Tmax ([2]; male, human, plasma, oral, Group/Treatment 3/2, 4-CNAB dose 450, with insulin, unaudited data, read-out: 4-CNAB tmax (range)) of the same compound?
**A.** 30 min

**Q.** What about the AUC [2, 11] of the same compound?
**A.** 4710 ng·h/mL

**Q.** What about the Cmax [2, 11] of the same compound?
**A.** 5170 ng/mL

**Q.** And the Tmax ([2]; male, human, plasma, oral, Group/Treatment 3/3, 4-CNAB dose 100, with insulin, unaudited data, read-out: 4-CNAB tmax (range))?
**A.** 15 min

**Q.** What about the MRT ([2]; male, human, plasma, oral, across treatments, read-out: 4-CNAB MRT, range) of the same compound?
**A.** 84 to 108 min

**Q.** And the half-life ([2]; male, human, plasma, oral, combination capsules with insulin, across dose groups, read-out: 4-CNAB mean elimination half-life)?
**A.** 192 to 318 min

**Q.** What about the AUC(0-inf) [2, 12] of the same compound?
**A.** 26700 ± 12200 ng·h/mL

**Q.** And the AUC(0-t) [2, 12]?
**A.** 22200 ± 6760 ng·h/mL

**Q.** What about the Cmax [2, 12] of the same compound?
**A.** 22300 ± 11500 ng/mL

**Q.** What about the MRT inf [2, 12] of the same compound?
**A.** 438 ± 693 min

**Q.** And the Vd/F [2, 12]?
**A.** 220 ± 130 L

**Q.** What about the half-life ([2]; male, human, plasma, po, 400 mg, 4-CNAB alone 400 mg oral, read-out: 4-CNAB t1/2 (converted)) of the same compound?
**A.** 720 ± 804 min

**Q.** And the Tmax ([2]; male, human, plasma, po, 400 mg, 4-CNAB alone 400 mg oral, read-out: 4-CNAB tmax, median (range))?
**A.** 30 min

**Q.** What about the AUC(0-inf) [2, 13] of the same compound?
**A.** 49400 ± 15100 ng·h/mL

**Q.** And the AUC(0-t) [2, 13]?
**A.** 44300 ± 14500 ng·h/mL

**Q.** What about the Cmax [2, 13] of the same compound?
**A.** 38000 ± 15800 ng/mL

**Q.** And the MRT inf [2, 13]?
**A.** 156 ± 31.8 min

**Q.** And the Vd/F [2, 13]?
**A.** 156 ± 82 L

**Q.** What about the half-life ([2]; male, human, plasma, po, 800 mg, 4-CNAB alone 800 mg oral, read-out: 4-CNAB t1/2 (converted)) of the same compound?
**A.** 354 ± 93 min

**Q.** What about the Tmax ([2]; male, human, plasma, po, 800 mg, 4-CNAB alone 800 mg oral, read-out: 4-CNAB tmax, median (range)) of the same compound?
**A.** 30 min

**Q.** And the AUC(0-inf) [2, 14]?
**A.** 154000 ± 38100 ng·h/mL

**Q.** And the AUC(0-t) [2, 14]?
**A.** 144000 ± 33800 ng·h/mL

**Q.** What about the Cmax [2, 14] of the same compound?
**A.** 103000 ± 14600 ng/mL

**Q.** And the MRT inf [2, 14]?
**A.** 184 ± 103 min

**Q.** What about the Vd/F [2, 14] of the same compound?
**A.** 81 ± 50 L

**Q.** And the half-life ([2]; male, human, plasma, po, 1400 mg, 4-CNAB alone 1400 mg oral, read-out: 4-CNAB t1/2 (converted))?
**A.** 378 ± 246 min

**Q.** And the Tmax ([2]; male, human, plasma, po, 1400 mg, 4-CNAB alone 1400 mg oral, read-out: 4-CNAB tmax, median (range))?
**A.** 45 min
